Values of other authors in publication PMC6311893, “Computational prediction of plasma protein binding of cyclic peptides from small molecule experimental data using sparse modeling techniques” (BMC Bioinformatics, 2018).

System: plasma protein
Conditions: fraction bound to plasma protein; small molecule dataset, sheet 1-SM (Set Dte = test, Dtr = training); ref Ingle et al.; cited from earlier work

Compound | PPB (fb)
Cc1cnc(C(=O)O)c[n+]1[O-] [acipimox] | 0.02
CCc1c2c(nc3ccc(OC(=O)N4CCC(N5CCCCC5)CC4)cc13)-c1cc3c(c(=O)n1C2)COC(=O)[C@]3(O)CC [Irinotecan] | 0.57
[H]/N=C(\N/C(=N/[H])Nc1ccc(Cl)cc1)NC(C)C [chlorguanide] | 0.85
CCC1(c2ccccc2)NC(=O)N(C)C1=O (stereo not drawn) [mephenytoin] | 0.4
COc1ccc2c(c1)c(CC(=O)OCC(=O)O)c(C)n2C(=O)c1ccc(Cl)cc1 [acemetacin] | 0.9
COc1cc(N)c(Cl)cc1C(=O)NC1CCN(CCCOc2ccc(F)cc2)CC1OC (stereo not drawn) [cisapride] | 0.98
CCOC(=O)NC1=C(N2CC2)C(=O)C(NC(=O)OCC)=C(N2CC2)C1=O [diaziquone] | 0.79
O=C(O)c1cn(-c2ccccc2C(F)(F)F)c2cc(N3CCNCC3)c(F)cc2c1=O [3a(o-CF3)] | 0.38
O=c1[nH]c2ccccc2n1C1CCN(CCCC(c2ccc(F)cc2)c2ccc(F)cc2)CC1 [pimozide] | 0.95
CC1(C)SC2C(NC(=O)C(N=[N+]=[N-])c3ccccc3)C(=O)N2C1C(=O)O (stereo not drawn) [azidocillin] | 0.8
CC(C)(Oc1ccc(C2CC2(Cl)Cl)cc1)C(=O)O (stereo not drawn) [ciprofibrate] | 0.95
OC[C@H]1OC(O)[C@H](O)[C@@H](O)[C@@H]1O (stereo partly drawn) [dextrose] | 0.3
CCN1CCCC1CNC(=O)c1cc(S(N)(=O)=O)ccc1OC (stereo not drawn) [sulpiride] | 0.25
CCOc1nc2cccc(C(=O)OC(C)OC(=O)OC3CCCCC3)c2n1Cc1ccc(-c2ccccc2-c2nnn[nH]2)cc1 (stereo not drawn) [Candesartan cilexetil] | 0.99
COc1ccc(CCNCC(O)COc2cccc(C)c2)cc1OC (stereo not drawn) [Bevantolol] | 0.97
Cc1ccsc1C(=CCCN1CCC[C@@H](C(=O)O)C1)c1sccc1C [Tiagabine] | 0.96
CC(=O)OCC(=O)[C@@]12N=C(C)O[C@@H]1C[C@H]1[C@@H]3CCC4=CC(=O)C=C[C@]4(C)[C@H]3[C@@H](O)C[C@@]12C [deflazacort] | 0.4
C[C@@H]1[C@H](O)[C@@H](C)/C=C/C=C/C=C/C=C/C=C/C=C/C=C/[C@H](O[C@@H]2O[C@H](C)[C@@H](O)[C@H](N)[C@@H]2O)C[C@@H]2O[C@](O)(C[C@@H](O)C[C@@H](O)[C@H](O)CC[C@@H](O)C[C@@H](O)CC(=O)O[C@H]1C)C[C@H](O)[C@H]2C(=O)O [amphotericin-B] | 0.94
CC(=O)O[C@@]12CO[C@@H]1C[C@H](O)[C@@]1(C)C(=O)[C@H](O)C3=C(C)[C@@H](OC(=O)[C@H](O)[C@@H](NC(=O)OC(C)(C)C)c4ccccc4)C[C@@](O)([C@@H](OC(=O)c4ccccc4)[C@H]21)C3(C)C [Docetaxel] | 0.96
CC(C(=O)O)c1ccc2oc(-c3ccc(Cl)cc3)nc2c1 (stereo not drawn) [benoxaprofen] | 0.99
CN1CCN(C(c2ccccc2)c2ccc(Cl)cc2)CC1 (stereo not drawn) [chlorcyclizine] | 0.87
CC(=O)OCC(=O)[C@@]1(O)CC[C@H]2[C@@H]3CCC4=CC(=O)CC[C@]4(C)[C@H]3C(=O)C[C@@]21C [cortisone acetate] | 0.95
CC1(C)SC2C(NC=O)C(=O)N2C1C(=O)O (stereo not drawn) [penicillin1] | 0.18

Same assay, conditions: fraction bound to plasma protein; small molecule dataset, sheet 1-SM, Set Dtr; ref Ingle et al.; cited from earlier work

Compound | PPB (fb)
OCCN1CCN(CC/C=C2/c3ccccc3Sc3ccc(Cl)cc32)CC1 [zuclopenthixol] | 0.98
CC(Oc1ccccc1)C(=O)N[C@@H]1C(=O)N2[C@@H]1SC(C)(C)[C@@H]2C(=O)O (stereo partly drawn) [Phenethicillin] | 0.75
Nc1nc2c(ncn2CCC(CO)CO)c(=O)[nH]1 [Penciclovir] | 0.13
CCCCC1=NC2(CCCC2)C(=O)N1Cc1ccc(-c2ccccc2-c2nnn[nH]2)cc1 [Irbesartan] | 0.9
CCCNC(C)C(=O)Nc1ccccc1C (stereo not drawn) [Prilocaine] | 0.39
NCc1ccccc1CC(=O)N[C@@H]1C(=O)N2C(C(=O)O)=C(CSc3nnnn3CC(=O)O)CS[C@H]12 [Ceforanide] | 0.81
C[C@@H](O)[C@H]1C(=O)N2C(C(=O)O)=C(S[C@@H]3CN[C@H](C(=O)N(C)C)C3)[C@H](C)[C@H]12 [Meropenem] | 0.08
CN[C@@H]1[C@@H](O)[C@@H](O[C@@H]2[C@@H](O)[C@H](O[C@H]3O[C@H](CN)[C@@H](O)[C@H](O)[C@H]3O)[C@@H](N)C[C@H]2NC(=O)[C@@H](O)CN)OC[C@]1(C)O [Isepamicin] | 0.05
CCOc1ccc(NC(C)=O)cc1 [Phenacetin] | 0.41
CC(C)[C@H]1CC[C@H](C(=O)N[C@H](Cc2ccccc2)C(=O)O)CC1 [Nateglinide] | 0.98
Nc1ccc(O)c(C(=O)O)c1 [Aminosalicylic acid__ 5-] | 0.61
CCCCCCCN(CC)CCCC(O)c1ccc(NS(C)(=O)=O)cc1 (stereo not drawn) [Ibutilide] | 0.4
CCc1nc(N)nc(N)c1-c1ccc(Cl)cc1 [Pyrimethamine] | 0.89
C=CC(N)CCC(=O)O (stereo not drawn) [vigabatrin] | 0
COc1cc(OC)c(C(=O)CCCN2CCCC2)c(OC)c1 [Buflomedil] | 0.6
CN1Cc2c(N)cccc2C(c2ccccc2)C1 (stereo not drawn) [Nomifensine] | 0.63
COc1c(N2C[C@@H]3CCCN[C@@H]3C2)c(F)cc2c(=O)c(C(=O)O)cn(C3CC3)c12 [Moxifloxacin] | 0.45

Same assay, conditions: fraction bound to plasma protein; small molecule dataset, sheet 1-SM; ref Ingle et al.; cited from earlier work

Compound | PPB (fb)
COc1cc(Cc2cnc(N)nc2N)cc(OC)c1OC [Trimethoprim] | 0.46
Cc1cc2c(OCC(O)CNC(C)C)cccc2[nH]1 (stereo not drawn) [mepindolol] | 0.5
C#C[C@]1(O)CC[C@H]2[C@@H]3[C@H](C)CC4=C(CCC(=O)C4)[C@H]3CC[C@@]21C [tibolone] | 0.96
CC(C(=O)NCCCN1CCCC1)c1ccc(OS(=O)(=O)C(F)(F)F)cc1 (stereo not drawn) [JMC_05] | 0.62
O=C(O)C(=O)O [oxalic acid] | 0
O=C1CCC(N2C(=O)c3ccccc3C2=O)C(=O)N1 (stereo not drawn) [Thalidomide] | 0.57
COc1cc2c(cc1OC)C1CC(=O)C(CC(C)C)CN1CC2 (stereo not drawn) [tetrabenazine] | 0.85
CCN(CCCCOC(=O)c1ccc(OC)c(OC)c1)C(C)Cc1ccc(OC)cc1 (stereo not drawn) [mebeverine] | 0.75
COC(C(=O)NC1C(=O)N2C1SC(C)(C)C2C(=O)O)c1c(Cl)cccc1Cl (stereo not drawn) [penicillin41] | 0.84
CN[C@@H]1[C@H](O)[C@H](NC)[C@H]2O[C@@]3(O)C(=O)C[C@@H](C)O[C@H]3O[C@@H]2[C@H]1O [spectinomycin] | 0.05
CC(=O)OCC(CCn1cnc2cnc(N)nc21)COC(C)=O [famciclovir] | 0.15
C/C(=C\C(=O)OCCCCCCCCC(=O)O)C[C@@H]1OC[C@H](C[C@@H]2O[C@H]2[C@@H](C)[C@H](C)O)[C@@H](O)[C@H]1O [mupirocin] | 0.96
CC[C@@H]1C(=O)OC[C@@H]1Cc1cncn1C [Pilocarpine] | 0.01
COC1=CC(=O)C[C@@H](C)[C@]12Oc1c(Cl)c(OC)cc(OC)c1C2=O [griseofulvin] | 0.8
Cc1cn[nH]c1 [fomepizole] | 0
CC(/C=C1\SC(=S)N(CC(=O)O)C1=O)=C\c1ccccc1 [Epalrestat] | 0.9
Cc1ccc2ccccc2c1C(=O)NC1C(=O)N2C1SC(C)(C)C2C(=O)O (stereo not drawn) [penicillin66] | 0.82
CC(Oc1ccccc1Cl)C(=O)NC1C(=O)N2C1SC(C)(C)C2C(=O)O (stereo not drawn) [penicillin55] | 0.96
CO[C@H]1/C=C/O[C@@]2(C)Oc3c(C)c(O)c4c(O)c(c(/C=N/N5CCN(C)CC5)c(O)c4c3C2=O)NC(=O)/C(C)=C\C=C\[C@H](C)[C@H](O)[C@@H](C)[C@@H](O)[C@@H](C)[C@H](OC(C)=O)[C@@H]1C [Rifampin] | 0.77
Cc1nc(C)c(C)nc1C [tetramethylpyrazine phosphate] | 0.56
CC(Oc1cccc2ccccc12)C(=O)NC1C(=O)N2C1SC(C)(C)C2C(=O)O (stereo not drawn) [penicillin70] | 0.97
CC1(C)SC2C(NC(=O)COc3ccccc3F)C(=O)N2C1C(=O)O (stereo not drawn) [penicillin52] | 0.91
CC(Oc1c(Cl)cccc1Cl)C(=O)NC1C(=O)N2C1SC(C)(C)C2C(=O)O (stereo not drawn) [penicillin57] | 0.96
OCCN1CCN(CCCN2c3ccccc3Sc3ccc(C(F)(F)F)cc32)CC1 [fluphenazine] | 0.95

Same assay, conditions: human, plasma; cited from earlier work

Compound | PPB (fb)
CCNC(=O)[C@@H]1CCCN1C(=O)[C@H](CCCNC(=N)N)NC(=O)[C@H](CC(C)C)NC(=O)[C@@H](CC(C)C)NC(=O)[C@H](Cc1ccc(O)cc1)NC(=O)[C@H](CO)NC(=O)[C@H](Cc1c[nH]c2ccccc12)NC(=O)[C@H](Cc1c[nH]cn1)NC(=O)[C@@H]1CCC(=O)N1 [Leuprolide] | 0.46

Same assay, conditions: plasma; cited from earlier work

Compound | PPB (fb)
CCCOC(=O)Cc1ccc(OCC(=O)N(CC)CC)c(OC)c1 [propanidid] | 0.75
O=C(C[S+]([O-])C(c1ccccc1)c1ccccc1)NO (stereo not drawn) [adrafinil] | 0.8
CC(=O)Oc1ccc2c3c1OC1C(OC(C)=O)C=CC4C(C2)N(C)CCC341 (stereo not drawn) [diamorphine] | 0
O=C(O)C1N=C(c2ccccc2)c2cc(Cl)ccc2NC1=O (stereo not drawn) [clorazepic acid] | 0.91
CN1C(=O)CCS(=O)(=O)C1c1ccc(Cl)cc1 (stereo not drawn) [chlormezanone] | 0.5
CN1CCN=C(c2ccccc2)c2cc(Cl)ccc21 [medazepam] | 0.99
CC(=O)[C@H]1CC[C@H]2[C@@H]3CC[C@@H]4C[C@H](O)CC[C@]4(C)[C@H]3CC[C@]12C [Eltanolone] | 0.99
COC(=O)C(c1ccccc1)C1CCCCN1 (stereo not drawn) [Methylphenidate] | 0.18
Nimodipine | 0.98
C=CCC1(C(C)C#CCC)C(=O)N=C(O)N(C)C1=O (stereo not drawn) [Methohexital] | 0.75
O=C([O-])[O-].[Li+].[Li+] [Lithium Carbonate] | 0
CN1C(=O)CN=C(c2ccccc2F)c2cc([N+](=O)[O-])ccc21 [Flunitrazepam] | 0.81
COc1ccc(C(CN(C)C)C2(O)CCCCC2)cc1 (stereo not drawn) [Venlafaxine] | 0.27
